Experimental data: patent publication US8889666B2, “Quinolyl pyrrolo pyrimidyl condensed-ring compound and salt thereof” (Taiho Pharmaceutical Co., Ltd., priority 2012, dated 2014)

What was measured:
Type in all cases: biochemical
EGFR (T790M/L858R) = target: T1, EGFR (T790M/L858R) (Homo sapiens, UniProt P00533, L858R/T790M); test: EGFR (T790M/L858R) kinase inhibitory activity (in vitro); conditions: for IC50: recombinant human protein, ATP 1 μM, 120 minutes; for inhibitory activities for EGFR (L858R), EGFR (d746-750), EGFR (T790M/L858R) and EGFR (d746-750/T790M), in words: summary of Table 1, all four mutant kinases
T1 construct: purchased Carna Biosciences, Inc
T1 sequence (P00533 25-1210 T790M/L858R): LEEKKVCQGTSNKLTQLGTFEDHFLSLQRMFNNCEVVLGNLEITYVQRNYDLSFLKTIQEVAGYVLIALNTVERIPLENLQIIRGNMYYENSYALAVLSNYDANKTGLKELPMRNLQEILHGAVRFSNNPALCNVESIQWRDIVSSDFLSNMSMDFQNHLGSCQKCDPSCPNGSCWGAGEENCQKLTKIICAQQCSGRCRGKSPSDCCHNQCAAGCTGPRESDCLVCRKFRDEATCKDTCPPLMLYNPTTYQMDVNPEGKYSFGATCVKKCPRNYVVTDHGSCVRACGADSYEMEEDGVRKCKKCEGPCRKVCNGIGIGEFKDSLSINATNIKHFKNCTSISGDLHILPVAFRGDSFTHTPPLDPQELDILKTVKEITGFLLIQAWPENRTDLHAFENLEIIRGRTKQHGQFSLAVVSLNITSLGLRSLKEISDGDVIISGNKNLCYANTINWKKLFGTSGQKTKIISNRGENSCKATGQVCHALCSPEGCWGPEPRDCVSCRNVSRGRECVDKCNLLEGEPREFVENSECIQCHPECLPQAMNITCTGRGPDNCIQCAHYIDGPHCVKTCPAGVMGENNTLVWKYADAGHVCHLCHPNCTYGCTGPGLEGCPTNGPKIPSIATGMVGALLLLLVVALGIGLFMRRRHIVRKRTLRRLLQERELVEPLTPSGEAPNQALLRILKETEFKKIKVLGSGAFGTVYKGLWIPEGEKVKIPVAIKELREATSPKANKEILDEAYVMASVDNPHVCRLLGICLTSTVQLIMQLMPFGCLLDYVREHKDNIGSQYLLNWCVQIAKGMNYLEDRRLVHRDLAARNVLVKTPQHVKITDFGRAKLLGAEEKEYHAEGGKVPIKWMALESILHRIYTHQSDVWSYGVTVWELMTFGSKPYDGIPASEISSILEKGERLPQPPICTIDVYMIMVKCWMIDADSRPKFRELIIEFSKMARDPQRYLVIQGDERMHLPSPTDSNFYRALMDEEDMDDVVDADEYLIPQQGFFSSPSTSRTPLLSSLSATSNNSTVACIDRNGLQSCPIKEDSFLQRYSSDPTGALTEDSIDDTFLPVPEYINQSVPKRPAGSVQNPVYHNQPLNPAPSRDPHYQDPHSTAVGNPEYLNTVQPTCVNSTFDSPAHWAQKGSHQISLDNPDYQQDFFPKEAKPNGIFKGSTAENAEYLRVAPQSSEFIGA
Method: 1) Measurement of EGFR (T790M/L858R) Kinase Inhibitory Activity
The inhibitory activities of the compounds I-1, I-2, I-3, I-4, I-5, I-6, I-7, I-8, and I-9 for EGFR (T790M/L858R) kinase were measured.
The materials were as follows. The substrate peptide was a biotinylated peptide (biotin-EEPLYWSFPAKKK) synthesized by reference to the amino acid sequence of FL-Peptide 22 (a reagent for LabChip® Series; Caliper Life Sciences, Inc.). The EGFR (T790M/L858R) was a purified recombinant human EGFR (T790M/L858R) protein purchased from Carna Biosciences, Inc.
(§1) The measurement method was as follows. The compounds I-1, I-2, I-3, I-4, I-5, I-6, I-7, I-8, and I-9 were each dissolved in dimethylsulfoxide (DMSO), and then each serially diluted with DMSO. Next, the EGFR (T790M/L858R) protein, substrate peptide (final concentration: 250 nM), magnesium chloride (final concentration: 10 mM), manganese chloride (final concentration: 10 mM), ATP (final concentration: 1 μM), and the diluted DMSO solution of each compound (final concentration of DMSO: 2.5%) were added to a kinase reaction buffer (Carna Biosciences, Inc.), and the mixture was incubated at 25° C. for 120 minutes for kinase reaction. EDTA was added thereto to a final concentration of 24 mM to thereby terminate the reaction. Then, a detection solution containing europium (Eu)-labeled anti-phosphorylated tyrosine antibody PT66 (PerkinElmer) and SureLight APC-SA (PerkinElmer) was added, and the resulting mixture was allowed to stand at room temperature for 2 hours or more. Finally, the intensity of fluorescence under the excitation light with a wavelength of 337 nm was measured by a PHERAstar FS (BMG LABTECH) at two wavelengths of 620 nm and 665 nm. The level of phosphorylation of each test sample was calculated from the fluorescence intensity ratio of the two wavelengths in DMSO control and in the test sample, and the compound concentration at which phosphorylation was inhibited by 50% was determined as the IC50 value (nM) of each compound.

EGFR (d746-750/T790M) = target: T2, EGFR (d746-750/T790M) (Homo sapiens, UniProt P00533, DEL746-750/T790M); test: EGFR (d746-750/T790M) kinase inhibitory activity (in vitro); conditions: recombinant human protein, ATP 1.5 μM
T2 construct: purchased Carna Biosciences, Inc
T2 sequence (P00533 with tags, fused parts or gaps DEL746-750/T790M limits assumed): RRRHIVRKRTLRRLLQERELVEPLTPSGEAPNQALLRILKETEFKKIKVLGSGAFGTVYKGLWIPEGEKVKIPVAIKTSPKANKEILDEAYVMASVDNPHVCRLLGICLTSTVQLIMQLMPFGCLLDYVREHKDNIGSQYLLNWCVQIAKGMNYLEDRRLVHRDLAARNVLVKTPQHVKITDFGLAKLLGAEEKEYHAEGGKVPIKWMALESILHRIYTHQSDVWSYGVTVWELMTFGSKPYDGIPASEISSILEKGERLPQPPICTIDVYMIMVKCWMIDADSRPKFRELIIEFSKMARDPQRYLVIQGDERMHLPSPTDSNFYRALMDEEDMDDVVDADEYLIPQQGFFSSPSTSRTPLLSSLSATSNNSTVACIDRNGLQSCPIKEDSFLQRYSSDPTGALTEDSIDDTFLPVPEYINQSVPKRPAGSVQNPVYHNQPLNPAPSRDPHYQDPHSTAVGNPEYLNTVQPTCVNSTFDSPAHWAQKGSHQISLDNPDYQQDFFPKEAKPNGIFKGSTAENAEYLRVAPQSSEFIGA
Method: as §1
2) Measurement of EGFR (d746-750/T790M) Kinase Inhibitory Activity
The inhibitory activities of the compounds I-1, I-2, I-3, I-4, I-5, I-6, I-7, I-8, and I-9 for EGFR (d746-750/T790M) kinase were measured.
(§2) The materials were as follows. The EGFR (d746-750/T790M) was a purified recombinant human EGFR (d746-750/T790M) protein purchased from Carna Biosciences, Inc. The final concentration of ATP was 1.5 μM. As for other conditions, the same materials and methods as those used in the measurement of EGFR (T790M/L858R) kinase inhibitory activity were used to determine the IC50 value (nM) of each compound.

EGFR (L858R) = target: T3, EGFR (L858R) (Homo sapiens, UniProt P00533, L858R); test: EGFR (L858R) kinase inhibitory activity (in vitro); conditions: recombinant human protein, ATP 4 μM
T3 construct: purchased Carna Biosciences, Inc
T3 sequence (P00533 25-1210 L858R): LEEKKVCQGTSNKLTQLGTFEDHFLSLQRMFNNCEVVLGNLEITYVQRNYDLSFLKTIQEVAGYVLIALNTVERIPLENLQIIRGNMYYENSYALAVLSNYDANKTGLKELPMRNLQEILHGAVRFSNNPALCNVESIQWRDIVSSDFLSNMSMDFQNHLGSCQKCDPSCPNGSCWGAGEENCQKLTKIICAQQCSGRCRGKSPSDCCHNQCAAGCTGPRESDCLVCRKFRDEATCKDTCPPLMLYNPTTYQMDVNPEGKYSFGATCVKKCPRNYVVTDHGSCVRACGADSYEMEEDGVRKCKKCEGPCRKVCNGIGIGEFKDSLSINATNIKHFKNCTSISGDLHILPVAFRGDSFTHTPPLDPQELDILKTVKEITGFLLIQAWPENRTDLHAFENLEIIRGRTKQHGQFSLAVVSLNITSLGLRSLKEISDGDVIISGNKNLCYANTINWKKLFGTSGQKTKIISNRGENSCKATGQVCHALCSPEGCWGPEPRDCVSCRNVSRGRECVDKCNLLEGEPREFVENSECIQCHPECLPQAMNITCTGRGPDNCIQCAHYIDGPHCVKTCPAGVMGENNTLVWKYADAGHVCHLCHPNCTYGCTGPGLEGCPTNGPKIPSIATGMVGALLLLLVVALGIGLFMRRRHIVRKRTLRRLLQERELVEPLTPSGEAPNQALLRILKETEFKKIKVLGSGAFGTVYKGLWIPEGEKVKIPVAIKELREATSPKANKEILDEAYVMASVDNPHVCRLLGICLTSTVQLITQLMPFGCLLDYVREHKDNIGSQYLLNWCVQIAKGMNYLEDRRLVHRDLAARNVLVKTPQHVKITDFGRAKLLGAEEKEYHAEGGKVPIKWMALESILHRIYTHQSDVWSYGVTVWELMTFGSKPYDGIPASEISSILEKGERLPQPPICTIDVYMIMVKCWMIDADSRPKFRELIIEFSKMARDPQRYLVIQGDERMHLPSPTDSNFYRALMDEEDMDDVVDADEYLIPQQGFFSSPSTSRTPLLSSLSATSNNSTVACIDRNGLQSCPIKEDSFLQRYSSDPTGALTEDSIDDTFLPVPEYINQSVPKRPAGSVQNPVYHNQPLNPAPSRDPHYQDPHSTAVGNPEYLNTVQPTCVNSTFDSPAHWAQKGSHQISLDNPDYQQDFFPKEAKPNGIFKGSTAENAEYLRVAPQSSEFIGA
Method: as §1
3) Measurement of EGFR (L858R) Kinase Inhibitory Activity
The inhibitory activities of the compounds I-1, I-2, I-3, I-4, I-5, I-6, I-7, I-8, and I-9 for EGFR (L858R) kinase were measured.
as §2, with “(L858R)” for “(d746-750/T790M)”, “4” for “1.5”

EGFR (d746-750) = target: T4, EGFR (d746-750) (Homo sapiens, UniProt P00533, DEL746-750); test: EGFR (d746-750) kinase inhibitory activity (in vitro); conditions: recombinant human protein, ATP 5 μM, 90 minutes
T4 construct: purchased Carna Biosciences, Inc
T4 sequence (P00533 with tags, fused parts or gaps DEL746-750 limits assumed): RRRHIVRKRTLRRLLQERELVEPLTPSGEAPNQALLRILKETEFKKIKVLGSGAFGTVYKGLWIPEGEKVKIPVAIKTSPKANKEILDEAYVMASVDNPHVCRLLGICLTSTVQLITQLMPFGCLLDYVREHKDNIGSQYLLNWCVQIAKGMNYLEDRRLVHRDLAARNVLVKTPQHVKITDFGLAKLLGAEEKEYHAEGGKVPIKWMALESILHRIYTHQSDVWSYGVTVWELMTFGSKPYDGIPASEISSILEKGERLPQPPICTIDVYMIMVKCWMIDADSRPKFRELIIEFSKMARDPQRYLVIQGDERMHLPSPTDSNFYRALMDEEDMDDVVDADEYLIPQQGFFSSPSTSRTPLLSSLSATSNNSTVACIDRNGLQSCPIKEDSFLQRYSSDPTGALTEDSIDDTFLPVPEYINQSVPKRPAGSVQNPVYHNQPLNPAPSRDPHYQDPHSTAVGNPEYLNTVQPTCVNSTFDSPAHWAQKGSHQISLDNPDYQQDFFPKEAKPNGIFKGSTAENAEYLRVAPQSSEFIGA
Method: as §1
4) Measurement of EGFR (d746-750) Kinase Inhibitory Activity
The inhibitory activities of the compounds I-1, I-2, I-3, I-4, I-5, I-6, I-7, I-8, and I-9 for EGFR (d746-750) kinase activity were measured.
as §2, with “(d746-750)” for “(d746-750/T790M)”, “5” for “1.5”, “μM. The incubation time for the kinase reaction was 90 minutes.” for “μM.”

EGFR (WT) = target: T5, EGFR (WT) (Homo sapiens, UniProt P00533); test: EGFR (WT) kinase inhibitory activity (in vitro); conditions: for IC50: cytoplasmic domain of human EGFR (WT), ATP 4.7 μM, substrate peptide 500 nM; for inhibitory activities for EGFR (WT) compared with the mutant EGFR proteins, in words: summary of Table 1
T5 construct: the cytoplasmic domain of human EGFR (WT); FLAG (N); made in house; host or cells: baculovirus expression system, insect Sf9 cells
T5 sequence (P00533 669-1210 limits assumed): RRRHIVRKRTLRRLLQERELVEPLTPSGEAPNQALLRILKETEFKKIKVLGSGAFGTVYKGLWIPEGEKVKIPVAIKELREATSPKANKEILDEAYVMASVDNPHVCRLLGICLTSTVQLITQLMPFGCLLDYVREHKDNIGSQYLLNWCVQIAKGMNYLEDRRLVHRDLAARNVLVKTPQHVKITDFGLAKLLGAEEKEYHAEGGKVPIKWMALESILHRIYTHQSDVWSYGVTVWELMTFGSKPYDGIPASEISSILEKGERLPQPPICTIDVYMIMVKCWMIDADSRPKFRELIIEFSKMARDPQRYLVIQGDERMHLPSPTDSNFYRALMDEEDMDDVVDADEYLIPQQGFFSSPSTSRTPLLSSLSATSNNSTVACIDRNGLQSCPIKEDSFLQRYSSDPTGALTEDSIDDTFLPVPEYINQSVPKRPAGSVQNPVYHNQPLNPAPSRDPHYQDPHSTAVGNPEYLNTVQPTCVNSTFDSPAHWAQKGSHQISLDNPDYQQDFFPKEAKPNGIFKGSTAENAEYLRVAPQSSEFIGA
Method: as §1
The inhibitory activities of the compounds I-1, I-2, I-3, I-4, I-5, I-6, I-7, I-8, and I-9 on EGFR (WT) kinase were measured.
The materials were as follows. As the EGFR (WT), the cytoplasmic domain of human EGFR (WT) in which a FLAG tag was fused to the N-terminus was expressed in a baculovirus expression system using insect Sf9 cells, and purified with anti-FLAG antibody agarose (Sigma-Aldrich). The final concentration of the substrate peptide was 500 nM, and the final concentration of ATP was 4.7 μM. As for other conditions, the same materials and methods as those used in the measurement of EGFR (T790M/L858R) kinase inhibitory activity were used to determine the IC50 value (nM) of each compound.

Row | SMILES | IC50 (EGFR (T790M/L858R)) [nM] | inhibitory activities for EGFR (L858R), EGFR (d746-750), EGFR (T790M/L858R) and EGFR (d746-750/T790M), in words (EGFR (T790M/L858R)) | IC50 (EGFR (d746-750/T790M)) [nM] | IC50 (EGFR (L858R)) [nM] | IC50 (EGFR (d746-750)) [nM] | IC50 (EGFR (WT)) [nM] | inhibitory activities for EGFR (WT) compared with the mutant EGFR proteins, in words (EGFR (WT)) | inhibitory activity for these EGFR kinases, in words (EGFR (T790M/L858R); all EGFR kinases of Test Example 1)
1 | C=CC(=O)N[C@@H]1CCc2c(-c3cnc4ccccc4c3)c3c(N)ncnc3n2C1 (single isomer, unassigned) [Compound I-1] | 5.3 | potent inhibitory activities | 2.8 | 14 | 13 | 170 | lower than those for the above mutant EGFR proteins | –
2 | CN(C)C/C=C/C(=O)NC1CCc2c(-c3cnc4ccccc4c3)c3c(N)ncnc3n2C1 (stereo not shown) [Compound I-4, (E)-N-(4-amino-5-(quinolin-3-yl)-6,7,8,9-tetrahydropyrimido[5,4-b]indolizin-8-yl)-4-(dimethylamino)-2-butenamide] | 6.7 | potent inhibitory activities | 4.1 | 12 | 10 | 120 | lower than those for the above mutant EGFR proteins | –
3 | C=CC(=O)N[C@H]1CCCc2c(-c3cnc4ccccc4c3)c3c(N)ncnc3n2C1 [Compound I-8, (S)-N-(4-amino-5-(quinolin-3-yl)-7,8,9,10-tetrahydro-6H-pyrimido[5′,4′:4,5]pyrrolo[1,2-a]azepin-9-yl)acrylamide] | 18 | potent inhibitory activities | 13 | 41 | 20 | 490 | lower than those for the above mutant EGFR proteins | –
4 | Nc1ncnc2c1c(-c1cnc3ccccc3c1)c1n2C[C@@H](NC(=O)/C=C\Cl)CC1 [Compound I-6, (S,Z)—N-(4-amino-5-(quinolin-3-yl)-6,7,8,9-tetrahydropyrimido[5,4-b]indolizin-8-yl)-3-chloroacrylamide] | 1.2 | potent inhibitory activities | 1.2 | 2.9 | 3.6 | 41 | lower than those for the above mutant EGFR proteins | –
5 | Nc1ncnc2c1c(-c1cccc(NC(=O)c3ccccc3)c1)c1n2CCCC1 [Comp. Ex. 1, N-(3-(4-amino-6,7,8,9-tetrahydropyrimido[5,4-b]indolizin-5-yl)phenyl)benzamide, reference compound] | > 5000 | – | > 5000 | > 5000 | 1500 | > 5000 | – | almost no inhibitory activity
6 | Nc1ncnc2c1c(-c1cnc3ccccc3c1)c1n2C[C@@H](NC(=O)/C=C/Cl)CC1 [Compound I-5, (S,E)-N-(4-amino-5-(quinolin-3-yl)-6,7,8,9-tetrahydropyrimido[5,4-b]indolizin-8-yl)-3-chloroacrylamide] | 0.4 | potent inhibitory activities | 0.3 | 0.7 | 0.5 | 5.9 | lower than those for the above mutant EGFR proteins | –
7 | C=CC(=O)N[C@H]1CCc2c(-c3cnc4ccccc4c3)c3c(N)ncnc3n2CC1 [Compound I-7, (S)-N-(4-amino-5-(quinolin-3-yl)-7,8,9,10-tetrahydro-6H-pyrimido[5′,4′:4,5]pyrrolo[1,2-a]azepin-8-yl)acrylamide] | 1.4 | potent inhibitory activities | 0.5 | 2.9 | 1.8 | 33 | lower than those for the above mutant EGFR proteins | –
8 | C=CC(=O)N[C@@H]1CCCc2c(-c3cnc4ccccc4c3)c3c(N)ncnc3n2C1 [Compound I-9, (R)-N-(4-amino-5-(quinolin-3-yl)-7,8,9,10-tetrahydro-6H-pyrimido[5′,4′:4,5]pyrrolo[1,2-a]azepin-9-yl)acrylamide] | 160 | potent inhibitory activities | 82 | 350 | 270 | 3600 | lower than those for the above mutant EGFR proteins | –
